# Data published in patent publication US4877881A, “Process of preparing pyrazoles, isoxazoles and analogs thereof having activity as 5-lipoxygenase inhibitors” (Warner-Lambert Company, priority 1988, dated 1989).
# What was measured:
# 5-lipoxygenase = target: T1, 5-lipoxygenase (Homo sapiens, UniProt P09917); assay: 5-Lipoxygenase Assay Using Isolated Human Leukocytes (5LOA2), 5-HETE formation; type: cell-based; conditions: inhibition of 5-HETE formation, arachidonic acid 20 μM, A23187 10 μM, read-out: 5-LO(IC50 in μM)
# T1 construct: The formation of 5-HETE in human leukocytes is considered a measure of 5-lipoxygenase activity; endogenous in cells; host or cells: leukocytes isolated from fresh human blood
# T1 sequence (P09917 1-674): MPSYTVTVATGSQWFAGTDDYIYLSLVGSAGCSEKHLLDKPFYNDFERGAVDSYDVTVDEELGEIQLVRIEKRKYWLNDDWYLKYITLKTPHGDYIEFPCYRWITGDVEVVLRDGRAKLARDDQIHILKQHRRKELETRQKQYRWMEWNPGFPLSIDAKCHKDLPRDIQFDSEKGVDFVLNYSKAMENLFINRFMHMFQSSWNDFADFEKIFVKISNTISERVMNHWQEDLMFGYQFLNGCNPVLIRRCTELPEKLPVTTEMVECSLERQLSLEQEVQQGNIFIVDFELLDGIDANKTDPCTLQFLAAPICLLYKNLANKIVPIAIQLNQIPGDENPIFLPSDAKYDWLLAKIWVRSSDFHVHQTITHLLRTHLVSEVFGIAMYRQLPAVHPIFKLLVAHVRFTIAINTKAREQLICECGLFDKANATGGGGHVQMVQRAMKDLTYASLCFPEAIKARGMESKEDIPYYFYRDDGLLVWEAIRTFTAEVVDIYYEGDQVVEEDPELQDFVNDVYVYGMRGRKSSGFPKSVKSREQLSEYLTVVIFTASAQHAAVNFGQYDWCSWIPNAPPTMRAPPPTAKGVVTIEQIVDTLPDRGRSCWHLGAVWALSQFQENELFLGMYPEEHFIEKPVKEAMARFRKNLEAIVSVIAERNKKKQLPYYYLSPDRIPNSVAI
# Experimental: 5-Lipoxygenase Assay Using Isolated Human Leukocytes (5LOA2)
# The formation of 5-HETE in human leukocytes is considered a measure of 5-lipoxygenase activity. The protocol is described in the following.
# Fresh heparinized or EDTA treated human blood is mixed with 6% dextran-3% dextrose in isotonic saline in the ratio 0.25 ml dextran solution per 1.0 ml blood. After mixing the blood is allowed to sit at room temperature for about 90 minutes while the RBC's settle. During this period, the plasma is removed with a plastic pipette to nalgens tubes.
# The pellet, consisting of leukocytes and erythrocytes, is treated with 10 ml 0.87% ammonium chloride at room temperature for four minutes, lysing the red cells. At the end of four minutes the cells are diluted with a 2x volume of phosphate buffered saline, pH 7.4, and centrifuged for ten minutes. The cells are washed three times with the phosphate buffered saline. Any of the pelleted cell matter which is not easily resuspended is discarded during the washings--the material contains platelets (12-lipoxygenase activity).
# After washing, the cells are resuspended in phosphate buffered saline containing 1.0 mM 'calcium and 0.5 mM magnesium. After counting, the cells are diluted to 1.5-2.0×10^7 leukocytes per milliliter.
# To each polypropylene reaction tube is added 0.48 ml leukocytes in Ca-Mg phosphate buffered saline, pH 7.4; 1-5 μl test compound dissolved in DMSO and buffer; or DMSO for control tubes.
# The tubes preincubate at 37° C. for five minutes.
# The reaction is started by adding 20 μl of the following, 0.5 μl, 20 mM arachidonic acid--final concentration=20 μM; 1 μl, 5 mM calcium ionophore A23187--final concentration=10 μM; and 18.5 μl buffer.
# The reaction proceeds for five minutes, then is stopped by adding 0.5 ml, 0.5 mM ice-cold Tris buffer, pH 8.0. The tubes are chilled on ice for ten minutes and then extracted three times with a total of 3.5 ml ethyl acetate (3.0 ml removed).
# The tubes can be stored at this point. For extended storage, the tubes should be filled with nitrogen.
# The ethyl acetate is evaporated with a Sorvall Speed-Vac. The residue is dissolved in ethanol. The tubes can also be stored at this point at -20° C. under nitrogen.
# A portion of the ethanol solution is injected into the HPLC system for 5-HETE quantitation.
# Injections are made automatically with a Waters WISP 710B. The pump is a Spectra Physics SP8700. […] An RP C-18 column is used. The solvent system is isocratic; the solvent is 70% methanol and 30% 0.01M sodium acetate, pH 5.7, pumped at 1.0 ml/min. […] Using a 15 cm Alltech Nucleosil C-18 5 μM column provides for a sample turnaround time of about 16 minutes.
# cyclooxygenase = target: T2, cyclooxygenase (Bos taurus, UniProt O62664); assay: Cyclooxygenase Enzyme Assay, bovine seminal vesicle (BSV), PGE2 formation; type: biochemical; conditions: bovine seminal vesicle powder; 100 μM arachidonic acid, 20 minutes
# T2 construct: The assay consists of incubating 2 mg bovine seminal vesicle powder; from tissue; host or cells: bovine seminal vesicle powder
# T2 sequence (O62664 25-600): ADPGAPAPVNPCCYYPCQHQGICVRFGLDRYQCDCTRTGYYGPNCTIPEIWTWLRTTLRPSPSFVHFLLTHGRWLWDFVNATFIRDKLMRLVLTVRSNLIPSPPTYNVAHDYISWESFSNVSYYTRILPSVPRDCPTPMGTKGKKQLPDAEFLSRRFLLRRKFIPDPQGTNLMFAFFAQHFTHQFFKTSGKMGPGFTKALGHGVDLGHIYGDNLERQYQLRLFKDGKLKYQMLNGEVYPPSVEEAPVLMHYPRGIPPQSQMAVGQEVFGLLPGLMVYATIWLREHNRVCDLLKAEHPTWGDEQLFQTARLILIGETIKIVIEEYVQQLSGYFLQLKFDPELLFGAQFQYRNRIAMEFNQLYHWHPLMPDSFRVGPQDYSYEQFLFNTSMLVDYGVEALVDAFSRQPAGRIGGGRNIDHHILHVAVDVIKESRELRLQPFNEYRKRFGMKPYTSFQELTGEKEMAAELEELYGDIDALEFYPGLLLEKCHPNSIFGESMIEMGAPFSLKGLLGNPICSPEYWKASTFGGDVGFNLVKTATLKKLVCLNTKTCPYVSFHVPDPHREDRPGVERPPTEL
# Experimental: Cyclooxygenase Enzyme Assay
# Additionally, inhibition of cyclooxygenase is considered a measure of relevance to the pathophysiology of the above noted diseases.
# The assay consists of incubating 2 mg bovine seminal vesicle powder with 2 mM epinephrine, 2.5 mM reduced glutathione, 100 μM arachidonic acid, and the test agent for 20 minutes. The reaction mixture is acidified and extracted with ethyl acetate (3×1.0 ml) and the pooled extract is evaporated to dryness using a Speed Vac Concentrator or under a stream of nitrogen. The residue was dissolved in ethanol.
IC50 (5-lipoxygenase) [µM],IC50 (cyclooxygenase) [µM],SMILES
1,66,"COc1cc(C=Cc2cc(C=Cc3ccc(O)c(OC)c3)[nH]n2)ccc1O [Example 1, 3,5-Bis[β-(4'-hydroxy-3'-methoxyphenyl)ethenyl]pyrazole]"
7.1,33,"COc1cc(C=Cc2cc(C)n[nH]2)ccc1O [Example 5, 3-[β-(4'-Hydroxy-3'-methoxyphenyl)ethenyl]-5-methylpyrazole]"
5.5,34,"Cc1cc(C=Cc2ccc(O)c(Cl)c2)n[nH]1 [Example 7, 3-[β-(4'-Hydroxy-3'-chlorophenyl)ethenyl]-5-methylpyrazole]"
